Laboratory results published in PubChem BioAssay AID270 (DTP/NCI, 2004).
Where “and” joins values, the source holds several entries; their conditions need not be identical. Equal values may be shown once. Records with an inconclusive call do not appear.

System: BDF1 mice, s.c. Lewis lung carcinoma, T/C %
Test: NCI In Vivo Anticancer Drug Screen. Data for tumor model Lewis Lung Carcinoma (subcutaneous) in B6D2F1 (BDF1) mice
Method: The antitumor activity of compounds was measured in mice bearing transplantable tumors. Survival or tumor size were measured and the results are expressed as the measurement made in the treated group (T) divided by the measurement made in the vehicle treated control group (C). The tumor model used in this assay is Lewis Lung Carcinoma (subcutaneous) in B6D2F1 (BDF1) mice

[1] = endpoint: median survival time, dose: 25.0 mg/kg/injection, schedule: Q01DX009 (ip), vehicle: Klucel (hydroxypropylcellulose) (HPC), higher = longer survival
[2] = endpoint: median survival time, dose: 3.12 mg/kg/injection, schedule: Q01DX009 (ip), vehicle: Klucel (hydroxypropylcellulose) (HPC), higher = longer survival
[3] = endpoint: median survival time, dose: 6.25 mg/kg/injection, schedule: Q01DX009 (ip), vehicle: Klucel (hydroxypropylcellulose) (HPC), higher = longer survival
[4] = endpoint: median survival time, dose: 12.5 mg/kg/injection, schedule: Q01DX009 (ip), vehicle: Klucel (hydroxypropylcellulose) (HPC), higher = longer survival

CC(C)NCC(O)COc1cccc2ccccc12 (stereo not given)
T/C (endpoint: median survival time, dose: 2.0 mg/kg/injection, schedule: Q01DX009 (ip), vehicle: Klucel (hydroxypropylcellulose) (HPC), higher = longer survival): 95 % of control and 110 % of control | T/C (endpoint: median survival time, dose: 2.0 mg/kg/injection, schedule: Q02DX009 (ip), vehicle: Klucel (hydroxypropylcellulose) (HPC), higher = longer survival): 123 % of control | T/C (endpoint: median survival time, dose: 4.0 mg/kg/injection, schedule: Q02DX009 (ip), vehicle: Klucel (hydroxypropylcellulose) (HPC), higher = longer survival): 95 % of control and 107 % of control | T/C (endpoint: median survival time, dose: 8.0 mg/kg/injection, schedule: Q02DX009 (ip), vehicle: Klucel (hydroxypropylcellulose) (HPC), higher = longer survival): 100 % of control and 108 % of control | T/C (endpoint: median survival time, dose: 16.0 mg/kg/injection, schedule: Q02DX009 (ip), vehicle: Klucel (hydroxypropylcellulose) (HPC), higher = longer survival): 92 % of control and 111 % of control | T/C (endpoint: median survival time, dose: 32.0 mg/kg/injection, schedule: Q02DX009 (ip), vehicle: Klucel (hydroxypropylcellulose) (HPC), higher = longer survival): 90 % of control and 105 % of control | T/C (endpoint: median survival time, dose: 64.0 mg/kg/injection, schedule: Q02DX009 (ip), vehicle: Klucel (hydroxypropylcellulose) (HPC), higher = longer survival): 101 % of control and 118 % of control

CC[C@](O)(C(=O)O)c1cc2n(c(=O)c1CO)Cc1cc3ccccc3nc1-2
T/C (endpoint: median survival time, dose: 1.0 mg/kg/injection, schedule: Q01DX009 (ip), vehicle: saline, higher = longer survival): 117 % of control | T/C (endpoint: median survival time, dose: 2.0 mg/kg/injection, schedule: Q01DX009 (ip), vehicle: saline, higher = longer survival): 92 % of control

CC(=O)NNC(=O)c1ccccn1
T/C [1]: 112 % of control | T/C (endpoint: median survival time, dose: 100.0 mg/kg/injection, schedule: Q01DX009 (ip), vehicle: Klucel (hydroxypropylcellulose) (HPC), higher = longer survival): 102 % of control | T/C (endpoint: median survival time, dose: 200.0 mg/kg/injection, schedule: Q01DX009 (ip), vehicle: Klucel (hydroxypropylcellulose) (HPC), higher = longer survival): 115 % of control

O=CN(O)CC(=O)O
T/C (endpoint: median survival time, dose: 3000.0 mg/kg/injection, schedule: Q01DX001 (ip), vehicle: saline, higher = longer survival): 115 % of control

O=CNCCO
T/C (endpoint: mean tumor weight, dose: 133.0 mg/kg/injection, schedule: Q01DX011 (ip), vehicle: saline, higher = larger tumour): 69 % of control | T/C (endpoint: mean tumor weight, dose: 200.0 mg/kg/injection, schedule: Q01DX011 (ip), vehicle: saline, higher = larger tumour): 79 % of control | T/C (endpoint: mean tumor weight, dose: 300.0 mg/kg/injection, schedule: Q01DX011 (ip), vehicle: saline, higher = larger tumour): 48 % of control | T/C (endpoint: mean tumor weight, dose: 450.0 mg/kg/injection, schedule: Q01DX011 (ip), vehicle: saline, higher = larger tumour): 54 % of control | T/C (endpoint: mean tumor weight, dose: 750.0 mg/kg/injection, schedule: Q01DX011 (ip), vehicle: saline, higher = larger tumour): 81 % of control

O=NN(CCCl)C(=O)NCC1CCC(CNC(=O)N(CCCl)N=O)CC1 (stereo not given)
T/C (endpoint: mean tumor weight, dose: 400.0 mg/kg/injection, schedule: Q01DX001 (ip), vehicle: carboxymethylcellulose (CMC), higher = larger tumour): 50 % of control | T/C (endpoint: mean tumor weight, dose: 600.0 mg/kg/injection, schedule: Q01DX001 (ip), vehicle: carboxymethylcellulose (CMC), higher = larger tumour): 36 % of control | T/C [2]: 92 % of control | T/C [3]: 93 % of control | T/C [4]: 98 % of control | T/C [1]: 100 % of control

CCO/C=C1\SC(=S)N(c2ccccc2OC)C1=O
T/C (endpoint: median survival time, dose: 1.56 mg/kg/injection, schedule: Q01DX009 (ip), vehicle: Klucel (hydroxypropylcellulose) (HPC), higher = longer survival): 100 % of control | T/C [2]: 98 % of control | T/C [3]: 109 % of control | T/C [4]: 101 % of control

CC1CN=C(C(=O)C(C)C2CCC3C4CC=C5CC(O)CCC5(C)C4CCC23C)C1 (stereo not given)
T/C (endpoint: mean tumor weight, dose: 100.0 mg/kg/injection, schedule: Q01DX011 (sc), vehicle: steriod suspending solution, higher = larger tumour): 118 % of control

C=C(C(=O)O)C(=O)O
T/C (endpoint: median survival time, dose: 50.0 mg/kg/injection, schedule: Q01DX009 (ip), vehicle: saline, higher = longer survival): 105 % of control | T/C (endpoint: median survival time, dose: 100.0 mg/kg/injection, schedule: Q01DX009 (ip), vehicle: saline, higher = longer survival): 105 % of control | T/C (endpoint: median survival time, dose: 200.0 mg/kg/injection, schedule: Q01DX009 (ip), vehicle: saline, higher = longer survival): 103 % of control

CC(=O)NC1=C(N2CC2)C(=O)C(NC(C)=O)=C(N2CC2)C1=O
T/C (endpoint: median survival time, dose: 0.12 mg/kg/injection, schedule: Q01DX009 (ip), vehicle: saline with Tween-80, higher = longer survival): 105 % of control and 111 % of control | T/C (endpoint: median survival time, dose: 0.25 mg/kg/injection, schedule: Q01DX005 (ip), vehicle: saline with Tween-80, higher = longer survival): 102 % of control and 119 % of control | T/C (endpoint: median survival time, dose: 0.25 mg/kg/injection, schedule: Q01DX009 (ip), vehicle: saline with Tween-80, higher = longer survival): 102 % of control and 112 % of control | T/C (endpoint: median survival time, dose: 0.5 mg/kg/injection, schedule: Q01DX005 (ip), vehicle: saline with Tween-80, higher = longer survival): 98 % of control and 109 % of control | T/C (endpoint: median survival time, dose: 0.5 mg/kg/injection, schedule: Q01DX009 (ip), vehicle: saline with Tween-80, higher = longer survival): 87 % of control and 105 % of control | T/C (endpoint: median survival time, dose: 1.0 mg/kg/injection, schedule: Q01DX005 (ip), vehicle: saline with Tween-80, higher = longer survival): 115 % of control | T/C (endpoint: median survival time, dose: 1.0 mg/kg/injection, schedule: Q01DX009 (ip), vehicle: saline with Tween-80, higher = longer survival): 123 % of control | T/C (endpoint: median survival time, dose: 2.0 mg/kg/injection, schedule: Q01DX005 (ip), vehicle: saline with Tween-80, higher = longer survival): 94 % of control
